Values quoted from earlier work as cited in patent US20230167447A1, “Compositions for FNIP1/FNIP2 Gene Modulation and Methods Thereof” (Genetic Intelligence, Inc, priority 2021, published 2023).

System: ALS patients

CC1=NN(c2ccccc2)C(=O)C1 [Edaravone, edaravone]
decline in physical function in ALS patients: slows the decline in physical function
subset of patients for which effective: around 7%
